This is an account of results in patent US20040122061A1, “Inhibitors of post-amadori advanced glycation end products” (BioStratum, Inc., priority 2002, published 2004).

pIC50, pKd: −log10 of the molar value. Like-named read-outs stand apart in the source and are kept apart here.

Data set [1] relates to conversion of Amadori compounds to post Amadori advanced glycation endproducts (bovine serum albumin and ribonuclease A glycated by ribose). Nature of the data set: Interrupted glycation: inhibition of post-Amadori AGE formation. The class given is biochemical. The settings on record: interrupted glycation with ribose, 37° C., pH 7.5; read-out: IC50 for inhibiting the conversion of Amadori compounds to post Amadori advanced glycation endproducts. As for the experimental part:
The effect of [2,4′]Bipyridinyl-3′-ol, 5-Hydroxymethyl-4-(1H-imidazol-2-yl)-2-methyl-pyridin-3-ol, and 4-(1H-Imidazol-2-yl)-pyridin-3-ol on post-Amadori AGE formation during interrupted glycation of bovine serum albumin and ribonuclease A by ribose was determined in comparison to pyridoxamine. Modification with ribose was done at 37° C. in 0.2 M phosphate buffer of pH 7.5 containing 0.02% sodium azide. The solutions were kept in capped tubes and opened only to remove timed aliquots that were immediately frozen for later carrying out the various analyses. “Interrupted glycation” experiments were carried out by first incubating protein with the ribose at 37° C. for 8 or 24 h, followed by immediate and extensive dialysis against frequent cold buffer changes at 4° C. The samples were then re-incubated by quickly warming to 37° C. in the absence of external ribose. Aliquots were taken and frozen at various intervals for later analysis. (See U.S. Pat. No. 5,985,857)
The interrupted glycation method for following post-Amadori kinetics of AGE formation allows for the rapid quantitative study of “late” stages of the glycation reaction. Importantly, this method allows for inhibition studies that are free of pathways of AGE formation that arise from glycoxidative products of free sugar or Schiff base (Namiki pathway). The experiments were designed to determine the half-maximal inhibitory concentration of these compounds (“IC50 values”) for inhibiting the conversion of Amadori compounds to post Amadori advanced glycation endproducts.

The next data set addresses T1, bovine serum albumin (Bos taurus, UniProt P02769).
T1 construct: from tissue; host or cells: plasma / serum (from the name; preparation not described)
Nature of the data set: Compound binding to plasma albumin (ultrafiltration, free compound), BSA. It counts as in vitro ADME. Particulars: BSA 40 mg/ml; for fraction unbound at 8 μg/ml: compound 8 μg/ml; for pKd: read-out: Computed (1:1) Kd. As for the experimental part:
(§1) This study was done to measure the binding of compounds of the present invention to plasma albumin. Such binding can result in longer plasma retention times and enhanced therapeutic efficacy for the compounds. The proteins tested were bovine serum albumin, bovine (BSA) at 40 mg/ml and rat albumin at ˜13 mg/ml.
(§2) Spectrophotmetry: Two mL of protein solution in 0.1M phosphate buffer saline (PBS) at pH 7.4 was titrated with compound in 0.2 M phosphate buffer at pH 7.4. The protein concentration was prepared to have absorbance less than 1 at the observation wavelength range (250-500), and the total volume change during titration was controlled below 2%. The compound-protein binding detection was based on the shift of spectrum.
Free compound measurement: One ml of compound and protein mixture was incubated at 37° C. for about 30 min and loaded into Centricon YM-10 (10,000 MW cut-off, for BSA) or Microcon YC-3 (3,000 MW cut-off). The samples were centrifuged in a fixed-angle rotor at 6,000 rpm for about 6-8 min (Centricon) or at 9,000 rpm for about 15 min (Microcon) to allow about 10-20% of the volume to filter through. Free compound passes through the membrane while the free and complexed protein remains in the sample reservoir. The concentration of free compound in the filtrate is assumed to be the same as in the sample above the membrane. A fixed amount of filtrate aliquot was diluted to 0.6 ml with PBS at pH 7.4 (PBS was prepared using 1 tablet from Sigma dissolved in 200 ml deionized H2O) and measured by UV absorbance. To quantify the percentage of free compound, the same compound at the same concentration in PBS solution, as standard, was prepared in parallel through the same process, or a calibration curve was generated through the same process. 1 ml of PBS solution (as blank) and 1 ml of protein solution (as control) also went through the same process and measurement.
Calculations: The method used to determine the percentage of free compound was either (a) % Free compound=(Asample−Acontrol)/Astandard×100, where, A is absorbance at selected wavelength; or (b) Obtaining free compound concentration of sample from calibration curve, and then divided by total concentration: Kd=[P][L]/[PL] (for 1:1 binding), using BSA MW=70,000.

The subject of data set [2] is streptozotocin (STZ)-diabetic rats. The experiment in a line: Rat model of diabetic neuropathy (STZ-diabetic rats). The class given is in vivo. Particulars: 50 mg/L in drinking water. As for the experimental part: Our aim was to ascertain whether BST-4997 treatment could correct nerve dysfunction in streptozotocin (STZ)-diabetic rats. Animals (n=10) were made diabetic for 6 weeks (group D), following which they were treated for 2 weeks with BST-4997 (group DBST) given in the drinking water at a concentration of 50 mg/L. They were compared to control non-diabetic rats (groups C). Statistical significance is reported according to the legend: **, *** p<0.01, p<0.001 versus untreated controls; ### p<0.001 treatment effect versus untreated diabetics.
FIG. 13 provides a graphical representation of the effect of BST-4997 on restoring nerve conduction velocity (NCV) in the STZ rats. Motor NCV was tested between the sciatic notch and knee for the nerve branch to tibialis anterior muscle, as described in Cameron et al., Q. J. Exp. Physiol. 74: 917-926 (1989); and Cameron et al., Exp. Neurol. 92: 757-761 (1986). Saphenous sensory NCV was measured between the groin and ankle.
FIG. 14 provides a graphical representation of the effect of BST-4997 on restoring endoneurial perfusion in the STZ rats. Vascular blood flow, pressure, and conductance were measured.
FIG. 15 provides a graphical representation of the effect of BST-4997 on improving pain related measures in the STZ rats. Responses to tactile allodynia, pressure, and thermal stimuli were measured.

A further data set concerns the target T2, rat albumin (Rattus norvegicus, UniProt P02770).
T2 construct: from tissue; host or cells: plasma (from 'plasma albumin'; preparation not described)
The experiment in a line: Compound binding to plasma albumin (ultrafiltration, free compound), rat albumin. It counts as in vitro ADME. Particulars: compound 10 μg/ml, rat albumin ~13 mg/ml. As for the experimental part:
as §1, §2
Free compound measurement: One ml of compound and protein mixture was incubated at 37° C. for about 30 min and loaded into Centricon YM-10 (10,000 MW cut-off, for BSA) or Microcon YC-3 (3,000 MW cut-off). […] A fixed amount of filtrate aliquot was diluted to 0.6 ml with PBS at pH 7.4 (PBS was prepared using 1 tablet from Sigma dissolved in 200 ml deionized H2O) and measured by UV absorbance. To quantify the percentage of free compound, the same compound at the same concentration in PBS solution, as standard, was prepared in parallel through the same process, or a calibration curve was generated through the same process. […]

The mark [3] stands for this setting: bovine, bovine serum albumin solution (40 mg/ml), pH 7.4, 37° C.
[4] abbreviates: STZ rats diabetic 6 weeks, then 2 weeks treatment, FIG. 13.
Setting [5] is: STZ rats, 2 weeks treatment, FIG. 14.
Where [6] appears, read: STZ rats, 2 weeks treatment, FIG. 15.

T1 sequence (P02769 25-607): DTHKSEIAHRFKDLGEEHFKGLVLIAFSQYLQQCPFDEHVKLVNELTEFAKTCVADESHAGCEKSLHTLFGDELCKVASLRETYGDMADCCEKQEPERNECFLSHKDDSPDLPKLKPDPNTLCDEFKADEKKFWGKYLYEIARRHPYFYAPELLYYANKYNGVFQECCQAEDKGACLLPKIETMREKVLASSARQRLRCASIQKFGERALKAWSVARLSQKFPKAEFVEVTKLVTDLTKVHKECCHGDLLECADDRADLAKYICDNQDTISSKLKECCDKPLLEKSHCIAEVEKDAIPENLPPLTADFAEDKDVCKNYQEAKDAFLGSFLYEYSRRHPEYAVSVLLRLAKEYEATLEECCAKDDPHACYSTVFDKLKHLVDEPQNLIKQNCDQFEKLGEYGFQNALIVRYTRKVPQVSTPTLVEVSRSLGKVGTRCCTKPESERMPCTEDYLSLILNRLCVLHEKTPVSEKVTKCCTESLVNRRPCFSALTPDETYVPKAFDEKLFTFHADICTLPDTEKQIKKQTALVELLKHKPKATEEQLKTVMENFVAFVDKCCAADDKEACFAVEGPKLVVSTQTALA
T2 sequence (P02770 25-608): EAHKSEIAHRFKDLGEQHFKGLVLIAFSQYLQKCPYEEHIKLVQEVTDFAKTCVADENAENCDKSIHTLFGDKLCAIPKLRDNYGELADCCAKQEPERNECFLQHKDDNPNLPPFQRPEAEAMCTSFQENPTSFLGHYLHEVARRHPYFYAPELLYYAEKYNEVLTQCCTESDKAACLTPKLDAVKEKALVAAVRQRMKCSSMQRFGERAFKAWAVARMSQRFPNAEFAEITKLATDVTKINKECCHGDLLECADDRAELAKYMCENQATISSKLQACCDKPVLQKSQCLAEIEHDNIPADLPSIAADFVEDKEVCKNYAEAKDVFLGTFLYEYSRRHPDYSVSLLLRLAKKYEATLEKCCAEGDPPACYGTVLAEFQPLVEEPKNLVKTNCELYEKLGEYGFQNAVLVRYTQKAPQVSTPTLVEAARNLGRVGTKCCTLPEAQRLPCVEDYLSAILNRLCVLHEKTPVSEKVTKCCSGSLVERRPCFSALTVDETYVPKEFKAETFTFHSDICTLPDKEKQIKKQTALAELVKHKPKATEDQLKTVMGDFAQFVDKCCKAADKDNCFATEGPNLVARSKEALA

With `Oc1cnccc1-c1ncc[nH]1` [BST4996, 4-(1H-Imidazol-2-yl)-pyridin-3-ol], the negative-log IC50 (pIC50) in data set [1] is 3.52 to 3.70. At bovine serum albumin (setting [3]), this compound returned a fraction unbound at 8 μg/ml of 0.53.

For `Oc1cnccc1-c1ccccn1` [BST4944, [2,4′]Bipyridinyl-3′-ol], the negative logarithm of the IC50 (pIC50) in data set [1] was 2.70. The fraction unbound at 8 μg/ml at bovine serum albumin (setting [3]) was found to be 0.34.

Turning to `Cc1ncc(CO)c(-c2ncc[nH]2)c1O` [BST4997, 5-Hydroxymethyl-4-(1H-imidazol-2-yl)-2-methyl-pyridin-3-ol], the “diabetes-associated defect in motor nerve conduction velocity (NCV)” value in data set [2] (setting [4]) is recorded as “dramatically reduced”. The “diabetes-associated defect in sensory nerve conduction velocity (NCV)” value in data set [2] (setting [4]) is reported as “dramatically reduced”. Moreover, the “correction of nerve dysfunction” value in data set [2] (STZ rats, 2 weeks treatment) is “effective in correcting nerve dysfunction”. The “diabetes-associated defect in endoneurial blood flow” value in data set [2] (setting [5]) was “dramatically reduced”. Besides, in data set [2] (setting [5]), the “diabetes-associated defect in endoneurial vascular conductance” value is reported as “dramatically reduced”. Moreover, the “diabetes-associated defect in tactile allodynia” value in data set [2] (setting [6]) is given as “dramatically reduced”. Moreover, the “diabetes-associated defect in thermal hyperalgesia (latency for foot withdrawal from a noxious heat stimulus)” value in data set [2] (setting [6]) is listed as “dramatically reduced”. Besides, in data set [1], the pIC50 was 3.52 to 3.70. Also, the pKd on rat albumin (read-out: Computed (1:1) Kd) is 3.46; at bovine serum albumin (compound 5 μg/ml), 3.59; at bovine serum albumin (compound 10 μg/ml), 3.62; at bovine serum albumin (compound 20 μg/ml), 3.49. Besides, the fraction unbound at 10 μg/ml on rat albumin (rat albumin solution (~13 mg/ml), pH 7.4, 37° C., read-out: % Free BST4997) is 0.67; on bovine serum albumin (bovine, bovine serum albumin solution (40 mg/ml), compound 10 μg/ml, pH 7.4, 37° C., read-out: % Free BST4997), 0.3. In addition, the fraction unbound at 5 μg/ml at bovine serum albumin (bovine, bovine serum albumin solution (40 mg/ml), compound 5 μg/ml, pH 7.4, 37° C., read-out: % Free BST4997) is 0.31. Besides, the fraction unbound at 20 μg/ml on bovine serum albumin (bovine, bovine serum albumin solution (40 mg/ml), compound 20 μg/ml, pH 7.4, 37° C., read-out: % Free BST4997) was 0.38.

As for `Cc1ncc(CO)c(CN)c1O` [pyridoxamine, reference compound], in data set [1], the pIC50 is approximately 2.52.

A word on the pIC50: it is the IC50 on a negative log10 scale, so that one unit is a factor of ten. As a reminder, the pKd is the Kd on a negative log10 scale, so that one unit is a factor of ten.
